Consider 9 compounds from patent US8318769B2, “Substituted sulfonamide compounds” (Gruenethal GmbH, priority 2008, dated 2012).

Test [1] concerns the target T1, bradykinin 1 receptor (B1R) of the rat (Rattus norvegicus, UniProt P97583).
T1 construct: expressed in transfected cells
T1 sequence (P97583 1-337): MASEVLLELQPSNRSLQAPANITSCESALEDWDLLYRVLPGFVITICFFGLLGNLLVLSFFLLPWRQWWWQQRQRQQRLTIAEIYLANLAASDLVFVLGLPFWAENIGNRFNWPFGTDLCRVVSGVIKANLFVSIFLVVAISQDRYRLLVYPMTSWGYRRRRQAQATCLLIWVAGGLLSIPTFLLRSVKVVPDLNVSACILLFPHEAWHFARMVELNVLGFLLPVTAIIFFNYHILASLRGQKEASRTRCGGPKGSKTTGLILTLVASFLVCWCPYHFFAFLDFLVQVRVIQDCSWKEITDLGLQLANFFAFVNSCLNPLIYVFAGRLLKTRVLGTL
Briefly: FLIPR Ca2+ assay, B1R antagonism, rat. In kind it is cell-based. The protocol: (§1) The agonistic or antagonistic action of substances can be quantified on the bradykinin 1 receptor (B1R) of the human and rat species with ectopically expressing cell lines (CHO K1 cells) and with the aid of a Ca^2+-sensitive dyestuff (Fluo-4) in a fluorescent imaging plate reader (FLIPR). The figure in % activation is based on the Ca^2+ signal after addition of Lys-Des-Arg^9-bradykinin (0.5 nM) or Des-Arg^9-bradykinin (100 nM). Antagonists lead to a suppression of the Ca^2+ inflow after addition of the agonist. % inhibition compared with the maximum achievable inhibition is stated.
(§2) The agonistic or antagonistic action of substances can be determined on the bradykinin 1 receptor (B1R) of the human and rat species with the following assay. In accordance with this assay, the Ca^2+ inflow through the channel is quantified with the aid of a Ca^2+-sensitive dyestuff (type Fluo-4, Molecular Probes Europe BV, Leiden, Holland) in a fluorescent imaging plate reader (FLIPR, Molecular Devices, Sunnyvale, USA).
(§3) Chinese hamster ovary cells (CHO K1 cells) transfected stably with the human B1R gene (hB1R cells) or the B1R gene of the rat (rB1R cells) are used. For functional studies, these cells are plated out on black 96-well plates with a clear base (BD Biosciences, Heidelberg, Germany or Greiner, Frickenhausen, Germany) in a density of 20,000-35,000 cells/well. The cells are left overnight at 37° C. and 5% CO2 in culture medium (hB1R cells: Nutrient Mixture Ham's F12, Gibco Invitrogen GmbH, Karlsruhe, Germany or DMEM, Sigma-Aldrich, Taufkirchen, Germany; rB1R cells: D-MEM/F12, Gibco Invitrogen GmbH, Karlsruhe, Germany) with 10 vol. % FBS (foetal bovine serum, Gibco Invitrogen GmbH, Karlsruhe, Germany or PAN Biotech GmbH, Aidenbach, Germany).
(§4) On the following day, the cells are loaded for 60 min at 37° C. with 2.13 μM Fluo-4 (Molecular Probes Europe BV, Leiden, Holland) in HBSS buffer (Hank's buffered saline solution, Gibco Invitrogen GmbH, Karlsruhe, Germany) with 2.5 mM probenecid (Sigma-Aldrich, Taufkirchen, Germany) and 10 mM HEPES (Sigma-Aldrich, Taufkirchen, Germany). The plates are then washed 2× with HBSS buffer, and HBSS buffer which additionally contains 0.1% BSA (bovine serum albumin; Sigma-Aldrich, Taufkirchen, Germany), 5.6 mM glucose and 0.05% gelatine (Merck KGaA, Darmstadt, Germany) is added. After a further incubation of 20 minutes at room temperature, the plates are inserted into the FLIPR for the Ca^2+ measurement.
(§5) Alternatively, the plates are washed with buffer A (15 mM HEPES, 80 mM NaCl, 5 mM KCl, 1.2 mM CaCl2, 0.7 mM MgSO4, 2 g/l glucose, 2.5 mM probenecid), buffer A is added and the plates are loaded with 2.5 μM Fluo-4 and 0.025% Pluronic F127 (Sigma-Aldrich, Taufkirchen, Germany). Thereafter, the cells are washed 2× with buffer A and incubated for 30 minutes with buffer A, which additionally contains 0.05% BSA and 0.05% gelatine, at room temperature and thereafter inserted into the FLIPR for the Ca^2+ measurement.
(§6) The Ca^2+-dependent fluorescence is measured here before and after addition of substances (λex=488 nm, λem=540 nm). Quantification is by measurement of the highest fluorescence intensity (FC, fluorescence counts) over time.
(§7) The FLIPR protocol consists of 2 additions of substance. Test substances (10 μM) are first pipetted on to the cells and the Ca^2+ inflow is compared with the control (hB1R: Lys-Des-Arg^9-bradykinin >=50 nM; rB1R: Des-Arg^9-bradykinin 10 μM). This gives the figure in % activation based on the Ca^2+ signal after addition of Lys-Des-Arg^9-bradykinin (>=50 nM) or Des-Arg^9-bradykinin (10 μM).
(§8) After incubation for 10-20 minutes, Lys-Des-Arg^9-bradykinin (hB1R) or Des-Arg^9-bradykinin (rB1R) in the concentration of the EC80 is applied and the inflow of Ca^2+ is likewise determined. Antagonists lead to a suppression of the Ca^2+ inflow. % inhibition compared with the maximum achievable inhibition is calculated. […]

In test [2] the target is T2, human bradykinin 1 receptor (B1R) (Homo sapiens, UniProt P46663).
T2 construct: expressed in transfected cells
T2 sequence (P46663 1-353): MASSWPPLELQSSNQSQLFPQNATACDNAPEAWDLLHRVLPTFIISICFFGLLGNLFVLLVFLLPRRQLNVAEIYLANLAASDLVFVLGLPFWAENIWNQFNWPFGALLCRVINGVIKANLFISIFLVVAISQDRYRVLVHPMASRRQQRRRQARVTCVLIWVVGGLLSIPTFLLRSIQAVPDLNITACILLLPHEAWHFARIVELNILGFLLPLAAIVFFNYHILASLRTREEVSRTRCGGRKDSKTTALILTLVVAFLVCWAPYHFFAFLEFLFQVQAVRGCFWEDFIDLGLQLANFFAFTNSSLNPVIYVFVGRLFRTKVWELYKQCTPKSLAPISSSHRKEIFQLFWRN
Kind of test: FLIPR Ca2+ assay, B1R antagonism, human. In kind it is cell-based. The protocol: as §1, §2, §3, §4, §5, §6, §7, §8

Setting [3] is: 10 μM test substance, CHO K1 cells with human B1R gene (hB1R cells), Lys-Des-Arg9-bradykinin at EC80, % inhibition compared with the maximum achievable inhibition.
The mark [4] stands for this setting: CHO-K1, 10 μM test substance, CHO K1 cells with rat B1R gene (rB1R cells), Des-Arg9-bradykinin at EC80, % inhibition compared with the maximum achievable inhibition, read-out: B1R antagonism, rat [10 μM] % inhibition.
Where [5] appears, read: 10 μM test substance, CHO K1 cells with human B1R gene (hB1R cells), Lys-Des-Arg9-bradykinin at EC80, % inhibition compared with the maximum achievable inhibition, read-out: B1R antagonism, human [10 μM] % inhibition.
Where [6] appears, read: CHO-K1, read-out: B1R antagonism, rat [10 μM] % inhibition.

Read-outs that look alike come from different tables or passages of the source.

With “3-[[1-[(4-methoxy-2,6-dimethyl-phenyl)sulfonyl]-piperidin-2-yl]-methoxy]-1-[4-pyridin-3-yl-4-(2-pyrrolidin-1-yl-ethoxy)-piperidin-1-yl]-propan-1-one [Example 120]”, in test [1] (10 μM test substance, CHO K1 cells with rat B1R gene (rB1R cells), Des-Arg9-bradykinin at EC80, % inhibition compared with the maximum achievable inhibition), the “B1R antagonism, rat [10 μM] % inhibition” value stood at 103%. The “B1R antagonism, human [10 μM] % inhibition” value in test [2] (setting [3]) is recorded as 100%.

In the case of `COc1cc(C)c(S(=O)(=O)N2c3ccccc3CC[C@H]2COCC(=O)N2CCC(OCCN3CCCC3)(c3cccnc3)CC2)c(C)c1` [Example 1, (S)-2-((1-(4-methoxy-2,6-dimethylphenylsulfonyl)-1,2,3,4-tetrahydroquinolin-2-yl)methoxy)-1-(4-(pyridin-3-yl)-4-(2-(pyrrolidin-1-yl)ethoxy)piperidin-1-yl)ethanone], the figures for the inhibition at 10 µM in test [1] (setting [4]) and in test [2] (setting [5]) were 100% and 99%, respectively.

For the compound `COc1cc(C)c(S(=O)(=O)N2CCCCC2CCCC(=O)N2CCC(OCCN3CCCC3)(c3cccnc3)CC2)c(C)c1` (stereo not shown) [Example 2, 4-(1-(4-methoxy-2,6-dimethylphenylsulfonyl)piperidin-2-yl)-1-(4-(pyridin-3-yl)-4-(2-(pyrrolidin-1-yl)ethoxy)piperidin-1-yl)butan-1-one], the inhibition at 10 µM in test [1] (setting [6]) was 99%. Also, the “B1R antagonism, human [10 μM] % inhibition” value in test [2] (10 μM test substance, CHO K1 cells with human B1R gene (hB1R cells), Lys-Des-Arg9-bradykinin at EC80, % inhibition compared with the maximum achievable inhibition, 10 µM) was found to be 97%.

Turning to `COc1cc(C)c(S(=O)(=O)N(CCOCC(=O)N2CCC(OCCN3CCCC3)(c3cccnc3)CC2)C2CC2)c(C)c1` [Example 3, N-cyclopropyl-4-methoxy-2,6-dimethyl-N-(2-(2-oxo-2-(4-(pyridin-3-yl)-4-(2-(pyrrolidin-1-yl)ethoxy)piperidin-1-yl)ethoxy)ethyl)benzenesulfonamide], the inhibition at 10 µM in test [1] (setting [4]) came out at 101%; in test [2] (setting [5]), 100%.

Take `O=C(COCCN(C(c1ccccc1)c1ccccc1)S(=O)(=O)c1ccc(Cl)cc1Cl)N1CCC(OCCN2CCCC2)(c2cccnc2)CC1` [Example 4, N-benzhydryl-2,4-dichloro-N-(2-(2-oxo-2-(4-(pyridin-3-yl)-4-(2-(pyrrolidin-1-yl)ethoxy)piperidin-1-yl)ethoxy)ethyl)benzenesulfonamide]: the inhibition at 10 µM amounted to 98% in test [1] (setting [6]) and 99% in test [2] (CHO-K1, read-out: B1R antagonism, human [10 μM] % inhibition).

On to `COc1cc(C)c(S(=O)(=O)N(CCOCC(=O)N2CCC(OCCN3CCCC3)(c3cccnc3)CC2)Cc2cccnc2)c(C)c1` [Example 5, 4-methoxy-2,6-dimethyl-N-(2-(2-oxo-2-(4-(pyridin-3-yl)-4-(2-(pyrrolidin-1-yl)ethoxy)piperidin-1-yl)ethoxy)ethyl)-N-(pyridin-3-ylmethyl)benzenesulfonamide], for which the figures for the inhibition at 10 µM in test [1] (setting [4]) and in test [2] (setting [5]) were 102% and 100%, respectively.

For `COc1cc(C)c(S(=O)(=O)N(CCOCC(=O)N2CCC(OCCN3CCCC3)(c3cccnc3)CC2)C(c2ccccc2)c2ccccc2)c(C)c1` [Example 6, N-benzhydryl-4-methoxy-2,6-dimethyl-N-(2-(2-oxo-2-(4-(pyridin-3-yl)-4-(2-(pyrrolidin-1-yl)ethoxy)piperidin-1-yl)ethoxy)ethyl)benzenesulfonamide], the inhibition at 10 µM amounted to 100% in test [1] (setting [4]) and 98% in test [2] (setting [5]).

For `COc1cc(C)c(S(=O)(=O)N2CCCCC2CCCC(=O)N2CCC(OCCN3CCCC3)(c3cccnc3)CC2)c(C)c1` (stereo not shown) [Example 88, 4-[1-[(4-methoxy-2,6-dimethyl-phenyl)sulfonyl]-piperidin-2-yl]-1-[4-pyridin-3-yl-4-(2-pyrrolidin-1-yl-ethoxy)-piperidin-1-yl]-butan-1-one], in test [2] (setting [3]), the “B1R antagonism, human [10 μM] % inhibition” value is reported as 100%.

`O=C(COCC1CCc2ccccc2N1S(=O)(=O)c1ccc2ccccc2c1)N1CCC(OCCN2CCCC2)(c2cccc(F)c2)CC1` (stereo not shown) [Example 131, 1-[4-(3-fluorophenyl)-4-(2-pyrrolidin-1-yl-ethoxy)-piperidin-1-yl]-2-[[1-(naphthalen-2-ylsulfonyl)-1,2,3,4-tetrahydro-quinolin-2-yl]-methoxy]-ethanone]: the inhibition at 10 µM in test [1] (setting [4]) came to 44%.

As a reminder, the inhibition is the change of the read-out against control, counted positive when it falls.
